Source: paper PMC6402191 (Clinical and Translational Science, 2017)
Several values for one entry are separate records, joined by “and”; a condition that tells them apart may be missing. Identical values can stand only once. Like-named read-outs stand apart in the source and are kept apart here.

What was measured:
[1] = biological target: T1, OAT3 (Homo sapiens, UniProt Q8TCC7); test: Uptake of baricitinib into OAT3-transfected HEK-PEAK cells; assay type: in vitro ADME
T1 sequence (Q8TCC7 1-542): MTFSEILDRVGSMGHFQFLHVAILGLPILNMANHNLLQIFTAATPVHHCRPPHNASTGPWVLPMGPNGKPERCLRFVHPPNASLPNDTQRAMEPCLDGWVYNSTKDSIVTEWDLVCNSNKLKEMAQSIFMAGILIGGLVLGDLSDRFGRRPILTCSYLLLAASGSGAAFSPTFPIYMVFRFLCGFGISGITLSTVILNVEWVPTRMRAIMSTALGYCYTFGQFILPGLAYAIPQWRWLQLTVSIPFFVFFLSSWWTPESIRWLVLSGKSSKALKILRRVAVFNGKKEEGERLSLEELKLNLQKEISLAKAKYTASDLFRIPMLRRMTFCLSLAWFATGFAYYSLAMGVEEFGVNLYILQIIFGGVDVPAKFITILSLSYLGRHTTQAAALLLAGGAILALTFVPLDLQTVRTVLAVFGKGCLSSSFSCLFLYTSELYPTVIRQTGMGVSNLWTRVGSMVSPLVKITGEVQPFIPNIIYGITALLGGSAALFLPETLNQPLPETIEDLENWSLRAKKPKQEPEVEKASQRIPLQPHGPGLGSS

[2] = biological target: MATE2-K (Homo sapiens, UniProt Q86VL8); test: Uptake of baricitinib into MATE2-K-transfected HEK cells; assay type: in vitro ADME
[3] = biological target: P-gp (Homo sapiens, UniProt P08183); test: Bidirectional transport of baricitinib in MDCK-MDR1 cells; assay type: in vitro ADME
[4] = biological target: T2, OCT1 (Homo sapiens, UniProt O15245); test: Baricitinib substrate study in OCT1-transfected HEK-PEAK cells; assay type: in vitro ADME
T2 sequence (O15245 1-554): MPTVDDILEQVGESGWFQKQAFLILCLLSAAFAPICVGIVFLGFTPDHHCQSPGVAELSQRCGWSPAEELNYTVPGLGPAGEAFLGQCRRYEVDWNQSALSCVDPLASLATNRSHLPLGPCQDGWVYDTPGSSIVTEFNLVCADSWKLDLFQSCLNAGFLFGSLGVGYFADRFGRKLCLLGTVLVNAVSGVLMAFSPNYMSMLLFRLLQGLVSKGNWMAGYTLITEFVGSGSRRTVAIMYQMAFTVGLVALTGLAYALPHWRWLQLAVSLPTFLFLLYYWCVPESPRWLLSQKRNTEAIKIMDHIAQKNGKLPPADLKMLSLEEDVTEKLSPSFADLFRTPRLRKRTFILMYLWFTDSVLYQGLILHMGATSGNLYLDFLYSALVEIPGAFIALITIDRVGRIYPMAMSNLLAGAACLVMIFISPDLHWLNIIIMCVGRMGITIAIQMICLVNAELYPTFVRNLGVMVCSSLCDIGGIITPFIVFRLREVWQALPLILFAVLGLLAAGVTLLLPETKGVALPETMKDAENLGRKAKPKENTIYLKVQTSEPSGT

[5] = biological target: T3, OATP1B1 (Homo sapiens, UniProt Q9Y6L6); test: Baricitinib substrate study in OATP1B1-transfected HEK-PEAK cells; assay type: in vitro ADME
T3 sequence (Q9Y6L6 1-691): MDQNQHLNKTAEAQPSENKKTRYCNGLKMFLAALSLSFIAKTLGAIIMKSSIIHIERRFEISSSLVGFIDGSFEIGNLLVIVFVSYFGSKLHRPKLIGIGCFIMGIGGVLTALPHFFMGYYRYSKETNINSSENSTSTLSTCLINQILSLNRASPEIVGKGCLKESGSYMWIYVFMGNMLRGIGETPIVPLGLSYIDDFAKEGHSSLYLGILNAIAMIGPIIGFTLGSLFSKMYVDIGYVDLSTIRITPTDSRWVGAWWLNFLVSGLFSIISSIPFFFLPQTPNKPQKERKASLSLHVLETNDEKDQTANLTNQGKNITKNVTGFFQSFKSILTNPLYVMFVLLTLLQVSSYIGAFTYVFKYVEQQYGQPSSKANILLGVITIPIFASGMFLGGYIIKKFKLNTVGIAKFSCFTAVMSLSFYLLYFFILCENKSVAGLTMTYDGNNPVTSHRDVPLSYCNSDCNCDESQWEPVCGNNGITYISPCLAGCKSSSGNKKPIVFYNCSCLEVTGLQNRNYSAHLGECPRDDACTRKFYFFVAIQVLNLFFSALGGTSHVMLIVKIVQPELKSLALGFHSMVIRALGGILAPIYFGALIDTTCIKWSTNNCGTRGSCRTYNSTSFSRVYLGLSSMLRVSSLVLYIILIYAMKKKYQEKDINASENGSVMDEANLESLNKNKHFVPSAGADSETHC

[6] = biological target: T4, OATP1B3 (Homo sapiens, UniProt Q9NPD5); test: Baricitinib substrate study in OATP1B3-transfected HEK-PEAK cells; assay type: in vitro ADME
T4 sequence (Q9NPD5 1-702): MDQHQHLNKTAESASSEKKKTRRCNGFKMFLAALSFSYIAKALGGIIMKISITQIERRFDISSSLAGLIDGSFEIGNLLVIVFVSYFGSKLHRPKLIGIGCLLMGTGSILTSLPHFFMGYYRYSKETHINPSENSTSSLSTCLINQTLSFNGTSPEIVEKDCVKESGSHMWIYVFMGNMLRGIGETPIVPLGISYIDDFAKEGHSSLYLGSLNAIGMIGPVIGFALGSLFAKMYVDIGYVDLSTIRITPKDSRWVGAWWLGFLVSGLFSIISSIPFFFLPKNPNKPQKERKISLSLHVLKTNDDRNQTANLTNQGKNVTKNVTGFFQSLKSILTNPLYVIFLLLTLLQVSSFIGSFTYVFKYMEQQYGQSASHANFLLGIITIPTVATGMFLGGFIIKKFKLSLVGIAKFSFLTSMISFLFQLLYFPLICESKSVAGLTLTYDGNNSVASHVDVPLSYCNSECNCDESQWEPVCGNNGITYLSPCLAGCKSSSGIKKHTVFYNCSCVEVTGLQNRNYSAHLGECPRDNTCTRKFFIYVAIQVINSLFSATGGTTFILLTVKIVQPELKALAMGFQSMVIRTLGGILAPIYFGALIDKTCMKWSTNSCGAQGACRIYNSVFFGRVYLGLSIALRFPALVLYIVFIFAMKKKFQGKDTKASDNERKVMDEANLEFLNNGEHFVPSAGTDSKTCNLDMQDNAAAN

[7] = Pharmacokinetic input parameters of the PBPK models; assay type: in vivo, human; details: fitted to match clinical data
[8] = cited from earlier work

Chain of P-gp (P08183 whole entry): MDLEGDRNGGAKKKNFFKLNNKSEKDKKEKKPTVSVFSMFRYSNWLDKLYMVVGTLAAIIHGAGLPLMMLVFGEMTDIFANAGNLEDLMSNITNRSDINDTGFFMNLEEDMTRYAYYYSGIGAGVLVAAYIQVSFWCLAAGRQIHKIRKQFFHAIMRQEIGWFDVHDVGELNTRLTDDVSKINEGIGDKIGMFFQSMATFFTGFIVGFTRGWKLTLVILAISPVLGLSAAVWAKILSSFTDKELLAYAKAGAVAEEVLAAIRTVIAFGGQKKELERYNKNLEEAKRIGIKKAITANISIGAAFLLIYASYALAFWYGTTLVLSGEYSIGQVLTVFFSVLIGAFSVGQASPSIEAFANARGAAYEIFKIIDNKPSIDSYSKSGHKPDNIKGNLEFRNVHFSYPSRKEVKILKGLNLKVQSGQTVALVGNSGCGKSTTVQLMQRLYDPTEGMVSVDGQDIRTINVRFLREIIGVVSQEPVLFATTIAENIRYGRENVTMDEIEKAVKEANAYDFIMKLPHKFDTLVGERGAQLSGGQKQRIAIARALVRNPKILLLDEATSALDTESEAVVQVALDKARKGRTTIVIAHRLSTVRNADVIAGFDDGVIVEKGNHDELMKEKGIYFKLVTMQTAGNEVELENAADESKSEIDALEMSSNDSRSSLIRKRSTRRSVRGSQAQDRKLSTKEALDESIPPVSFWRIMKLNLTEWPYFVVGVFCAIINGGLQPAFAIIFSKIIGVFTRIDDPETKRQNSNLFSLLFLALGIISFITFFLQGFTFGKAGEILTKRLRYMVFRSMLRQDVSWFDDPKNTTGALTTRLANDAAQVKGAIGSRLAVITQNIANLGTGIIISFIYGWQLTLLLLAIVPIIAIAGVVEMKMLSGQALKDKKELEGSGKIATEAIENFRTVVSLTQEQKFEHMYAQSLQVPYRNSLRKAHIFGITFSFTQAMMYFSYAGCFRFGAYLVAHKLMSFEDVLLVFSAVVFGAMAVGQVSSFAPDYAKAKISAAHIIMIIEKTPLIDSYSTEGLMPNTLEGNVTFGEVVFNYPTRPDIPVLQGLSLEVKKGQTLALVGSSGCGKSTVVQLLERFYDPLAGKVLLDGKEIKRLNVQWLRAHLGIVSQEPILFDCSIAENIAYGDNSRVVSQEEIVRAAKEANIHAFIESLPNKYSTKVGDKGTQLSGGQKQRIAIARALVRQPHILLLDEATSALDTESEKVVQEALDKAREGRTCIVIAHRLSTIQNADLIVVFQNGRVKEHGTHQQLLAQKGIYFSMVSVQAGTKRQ
Chain of MATE2-K (Q86VL8 1-566 isoform Q86VL8-3): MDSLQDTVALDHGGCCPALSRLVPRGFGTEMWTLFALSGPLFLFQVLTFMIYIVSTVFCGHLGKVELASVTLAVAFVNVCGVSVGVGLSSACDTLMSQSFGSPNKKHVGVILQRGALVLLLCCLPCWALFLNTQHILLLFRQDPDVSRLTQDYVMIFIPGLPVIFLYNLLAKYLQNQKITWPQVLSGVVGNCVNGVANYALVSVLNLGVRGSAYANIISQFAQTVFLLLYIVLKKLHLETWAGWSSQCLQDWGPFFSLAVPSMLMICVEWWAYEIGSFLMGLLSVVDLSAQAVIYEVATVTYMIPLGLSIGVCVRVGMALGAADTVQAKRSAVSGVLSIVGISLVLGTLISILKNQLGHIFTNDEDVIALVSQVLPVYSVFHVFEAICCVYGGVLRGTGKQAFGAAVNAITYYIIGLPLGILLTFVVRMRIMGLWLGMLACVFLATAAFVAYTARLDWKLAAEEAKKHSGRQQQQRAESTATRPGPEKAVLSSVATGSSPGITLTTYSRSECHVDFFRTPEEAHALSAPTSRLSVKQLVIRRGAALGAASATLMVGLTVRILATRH

OAT3 substrate [1]: substrate of OAT3 | Uptake into OAT3-transfected cells relative to control cells ([1]; 1-min incubation): approximately double | OAT3 Vmax ([1]; PBPK input): 70.76 pmol/min/10^6 cells | OAT3 Vmax ([1]; average of two experiments): 176.9 pmol/min/mg protein | MATE2-K substrate [2]: substrate of MATE2‐K | MATE2‐K Vmax [2]: 1315 ± 129 pmol/min/mg protein | Uptake into MATE2-K cells relative to control cells ([2]; 0.5 min): approximately three times greater | MATE2‐K Vmax ([2]; PBPK input): 657.5 pmol/min/10^6 cells | P-gp substrate [3]: P‐gp substrate | Papp at 5 μM ([3]; dog, MDCK): 6.6 ×10⁻⁶ cm/s | Papp A→B at 5 µM ([3]; dog, MDCK-MDR1): 0.9 ×10⁻⁶ cm/s | Papp B→A at 5 µM ([3]; dog, MDCK-MDR1): 35.2 ×10⁻⁶ cm/s | OCT1 substrate [4]: not a substrate | OATP1B1 substrate [5]: not a substrate | OATP1B3 substrate [6]: not a substrate | ka (first-order absorption rate constant) [7]: 1.2 h^‐1
Compound: CCS(=O)(=O)N1CC(CC#N)(n2cc(-c3ncnc4[nH]ccc34)cn2)C1 [Baricitinib]
OAT3 Vmax (individual experiments) ([1]; each of two separate experiments): 164.3 ± 7.97 pmol/min/mg protein and 189.5 ± 27.10 pmol/min/mg protein | eliminated unchanged in urine [8]: 70 % of dose | renal clearance [8]: ~11 L/h | decrease in renal secretory clearance with cyclosporine ([8]; single 600 mg dose of cyclosporine): 30%
